Results reported in ChEMBL document CHEMBL1201862, “PubChem BioAssay data set” (2004).
Values belong to the molecule of their own block, whether it stands above or below them. Activity calls are given as the source filed them.

How the values were obtained:
[1] = molecular target: T1, Apoptotic protease-activating factor 1 (Homo sapiens, UniProt O14727); experiment: SAR analysis of small molecule Activators of Apaf-1 in a Fluorescent assay.; type: functional; settings: read-out: EC50_Mean;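 further: caspase-3 cleavage of fluorogenic Rh110 DEVD substrate downstream of apoptosome activation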
T1 sequence (O14727 whole entry): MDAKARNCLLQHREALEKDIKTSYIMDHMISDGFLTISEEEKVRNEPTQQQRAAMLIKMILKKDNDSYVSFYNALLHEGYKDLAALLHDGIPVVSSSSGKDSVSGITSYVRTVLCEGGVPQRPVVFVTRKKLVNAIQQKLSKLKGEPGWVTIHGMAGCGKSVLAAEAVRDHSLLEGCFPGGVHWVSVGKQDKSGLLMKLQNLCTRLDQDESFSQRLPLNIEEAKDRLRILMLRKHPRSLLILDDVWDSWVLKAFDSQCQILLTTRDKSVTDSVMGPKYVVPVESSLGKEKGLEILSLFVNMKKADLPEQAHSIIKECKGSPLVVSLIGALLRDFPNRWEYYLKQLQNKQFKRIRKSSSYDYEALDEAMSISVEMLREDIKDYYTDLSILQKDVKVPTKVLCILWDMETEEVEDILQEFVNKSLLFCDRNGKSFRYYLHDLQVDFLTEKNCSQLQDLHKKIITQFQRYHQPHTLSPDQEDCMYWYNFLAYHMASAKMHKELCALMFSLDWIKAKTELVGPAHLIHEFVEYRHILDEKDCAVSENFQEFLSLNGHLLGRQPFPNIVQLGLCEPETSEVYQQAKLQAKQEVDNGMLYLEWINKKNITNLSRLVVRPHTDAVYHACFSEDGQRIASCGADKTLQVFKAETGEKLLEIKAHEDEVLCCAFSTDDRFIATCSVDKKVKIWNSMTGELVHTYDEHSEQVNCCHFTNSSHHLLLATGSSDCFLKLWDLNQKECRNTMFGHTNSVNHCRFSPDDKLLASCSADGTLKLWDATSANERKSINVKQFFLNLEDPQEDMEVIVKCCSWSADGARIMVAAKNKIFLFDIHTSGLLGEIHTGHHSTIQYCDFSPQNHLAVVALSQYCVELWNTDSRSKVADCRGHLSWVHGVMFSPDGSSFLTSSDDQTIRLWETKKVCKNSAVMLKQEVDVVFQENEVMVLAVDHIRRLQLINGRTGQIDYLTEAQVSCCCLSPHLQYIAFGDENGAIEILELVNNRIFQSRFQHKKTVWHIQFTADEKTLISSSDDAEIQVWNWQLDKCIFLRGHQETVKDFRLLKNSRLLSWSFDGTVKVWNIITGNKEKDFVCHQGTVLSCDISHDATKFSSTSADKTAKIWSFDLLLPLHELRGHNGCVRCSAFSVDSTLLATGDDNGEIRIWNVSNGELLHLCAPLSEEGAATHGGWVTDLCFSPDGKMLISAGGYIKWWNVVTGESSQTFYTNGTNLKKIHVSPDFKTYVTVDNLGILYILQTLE

[2] = molecular target: Benomyl/methotrexate resistance protein (Candida albicans, UniProt P28873); experiment: Candida albicans Mdr1 pump inhibition curves – singleplex, Cherry Pick1 hits, dose response (AID 588608); type: functional
Benomyl/methotrexate resistance protein, sequence (P28873 whole entry): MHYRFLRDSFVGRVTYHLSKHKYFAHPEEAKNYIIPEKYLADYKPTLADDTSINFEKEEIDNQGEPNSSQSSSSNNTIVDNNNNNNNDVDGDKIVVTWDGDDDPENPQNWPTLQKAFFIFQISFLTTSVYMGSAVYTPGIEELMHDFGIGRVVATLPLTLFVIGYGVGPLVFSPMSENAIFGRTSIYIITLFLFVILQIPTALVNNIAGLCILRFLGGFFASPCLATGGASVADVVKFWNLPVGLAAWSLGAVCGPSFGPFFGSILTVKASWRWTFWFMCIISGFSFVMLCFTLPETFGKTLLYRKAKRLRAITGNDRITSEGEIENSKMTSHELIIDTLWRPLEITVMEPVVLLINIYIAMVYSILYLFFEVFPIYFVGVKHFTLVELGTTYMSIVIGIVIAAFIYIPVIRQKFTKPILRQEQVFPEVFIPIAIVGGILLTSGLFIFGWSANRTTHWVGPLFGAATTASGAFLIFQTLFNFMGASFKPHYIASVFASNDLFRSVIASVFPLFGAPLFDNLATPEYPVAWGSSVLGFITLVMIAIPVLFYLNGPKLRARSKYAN

[3] = molecular target: Melanin-concentrating hormone receptor 1 (Homo sapiens, UniProt Q99705); experiment: Late-stage fluorescence-based counterscreen for antagonists of the G-protein coupled receptor 7 (GPR7): cell-based dose response assay to identify antagonists of the melanin-concentrating hormone receptor 1 (MCHR1) Set 5.; type: functional
Melanin-concentrating hormone receptor 1, sequence (Q99705 whole entry): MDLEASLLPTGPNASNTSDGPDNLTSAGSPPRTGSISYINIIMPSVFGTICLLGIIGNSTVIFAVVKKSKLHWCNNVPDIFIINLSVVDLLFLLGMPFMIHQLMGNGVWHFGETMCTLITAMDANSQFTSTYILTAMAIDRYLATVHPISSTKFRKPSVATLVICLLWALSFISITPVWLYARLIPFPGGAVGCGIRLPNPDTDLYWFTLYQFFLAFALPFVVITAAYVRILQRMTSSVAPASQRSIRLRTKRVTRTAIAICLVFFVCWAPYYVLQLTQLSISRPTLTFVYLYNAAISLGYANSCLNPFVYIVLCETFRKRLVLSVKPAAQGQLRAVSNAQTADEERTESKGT

[4] = molecular target: T2, Neuropeptides B/W receptor type 1 (Homo sapiens, UniProt P48145); experiment: human NPBW1 receptor blockade, IC50 – cell-based, fluorescence, dose response, set 5, late-stage follow-up (AID 588566); type: functional
T2 sequence (P48145 whole entry): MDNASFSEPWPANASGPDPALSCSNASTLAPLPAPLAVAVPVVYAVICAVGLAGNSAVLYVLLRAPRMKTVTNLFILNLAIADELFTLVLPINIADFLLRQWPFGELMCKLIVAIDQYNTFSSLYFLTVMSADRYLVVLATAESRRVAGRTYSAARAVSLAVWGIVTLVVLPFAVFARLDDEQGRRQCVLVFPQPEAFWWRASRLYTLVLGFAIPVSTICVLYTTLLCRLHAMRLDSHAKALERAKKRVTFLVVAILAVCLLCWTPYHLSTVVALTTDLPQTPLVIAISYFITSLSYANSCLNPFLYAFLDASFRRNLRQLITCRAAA

[5] = molecular target: T3, Corticotropin-releasing factor receptor 2/Corticotropin-releasing factor-binding protein (Homo sapiens, UniProt P24387+Q13324); experiment: activators of CRF receptor 2 with binding protein – uHTS hits, confirmation (AID 602473); type: functional; settings: read-out: EC50_Mean
T3 sequence (Q13324 whole entry): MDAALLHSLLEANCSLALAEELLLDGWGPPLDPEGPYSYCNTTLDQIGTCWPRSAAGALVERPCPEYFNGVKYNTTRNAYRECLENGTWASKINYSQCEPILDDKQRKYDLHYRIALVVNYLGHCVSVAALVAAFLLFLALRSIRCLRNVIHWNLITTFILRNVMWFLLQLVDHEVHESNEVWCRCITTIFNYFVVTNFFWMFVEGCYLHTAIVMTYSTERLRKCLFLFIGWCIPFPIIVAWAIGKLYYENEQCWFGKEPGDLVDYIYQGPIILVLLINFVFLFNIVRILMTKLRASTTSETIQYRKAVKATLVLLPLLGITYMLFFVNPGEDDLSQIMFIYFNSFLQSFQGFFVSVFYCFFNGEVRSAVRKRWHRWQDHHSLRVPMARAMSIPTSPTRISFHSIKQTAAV
T3 sequence (P24387 whole entry): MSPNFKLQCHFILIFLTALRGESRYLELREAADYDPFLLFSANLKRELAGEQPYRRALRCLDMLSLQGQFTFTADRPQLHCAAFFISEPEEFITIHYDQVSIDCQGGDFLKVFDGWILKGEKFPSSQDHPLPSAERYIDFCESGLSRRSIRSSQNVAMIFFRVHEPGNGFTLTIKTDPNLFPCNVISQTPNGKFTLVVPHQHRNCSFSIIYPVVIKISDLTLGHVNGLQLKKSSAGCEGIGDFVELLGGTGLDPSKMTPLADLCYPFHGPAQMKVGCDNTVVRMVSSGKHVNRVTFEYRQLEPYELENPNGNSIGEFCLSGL

[6] = blockers of CRF-binding protein–CRF-R2 complex – cell-based, uHTS hits, 384-well, dose response (AID 651639); type: functional, Homo sapiens; settings: read-out: IC50_Mean
[7] = molecular target: T3, Corticotropin-releasing factor receptor 2/Corticotropin-releasing factor-binding protein; experiment: Dose Response confirmation of uHTS hits for small molecule antagonists of the CRF-binding protein and CRF-R2 receptor complex.; type: functional; settings: read-out: IC50_Mean
[8] = molecular target: T4, Low molecular weight phosphotyrosine protein phosphatase (Homo sapiens, UniProt P24666); type: functional; settings: read-out: IC50_Mean
T4 sequence (P24666 whole entry): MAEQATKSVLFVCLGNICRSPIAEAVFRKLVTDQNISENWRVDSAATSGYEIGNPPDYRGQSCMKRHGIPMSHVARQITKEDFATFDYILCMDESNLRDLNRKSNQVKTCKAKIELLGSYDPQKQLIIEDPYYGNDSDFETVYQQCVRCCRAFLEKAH

[9] = molecular target: T4, Low molecular weight phosphotyrosine protein phosphatase; type: functional; settings: read-out: IC50_Mean; remark: listed apart in the source
[10] = molecular target: T5, Tyrosine-protein phosphatase non-receptor type 22 (Homo sapiens, UniProt Q9Y2R2); experiment: PTPN22 enzyme inhibitors – biochemical, fluorescence, LYP catalytic domain, selectivity assay for LMPTP inhibitor project, dose response (AID 652006); type: functional; settings: read-out: IC50_Mean
T5 sequence (Q9Y2R2 whole entry): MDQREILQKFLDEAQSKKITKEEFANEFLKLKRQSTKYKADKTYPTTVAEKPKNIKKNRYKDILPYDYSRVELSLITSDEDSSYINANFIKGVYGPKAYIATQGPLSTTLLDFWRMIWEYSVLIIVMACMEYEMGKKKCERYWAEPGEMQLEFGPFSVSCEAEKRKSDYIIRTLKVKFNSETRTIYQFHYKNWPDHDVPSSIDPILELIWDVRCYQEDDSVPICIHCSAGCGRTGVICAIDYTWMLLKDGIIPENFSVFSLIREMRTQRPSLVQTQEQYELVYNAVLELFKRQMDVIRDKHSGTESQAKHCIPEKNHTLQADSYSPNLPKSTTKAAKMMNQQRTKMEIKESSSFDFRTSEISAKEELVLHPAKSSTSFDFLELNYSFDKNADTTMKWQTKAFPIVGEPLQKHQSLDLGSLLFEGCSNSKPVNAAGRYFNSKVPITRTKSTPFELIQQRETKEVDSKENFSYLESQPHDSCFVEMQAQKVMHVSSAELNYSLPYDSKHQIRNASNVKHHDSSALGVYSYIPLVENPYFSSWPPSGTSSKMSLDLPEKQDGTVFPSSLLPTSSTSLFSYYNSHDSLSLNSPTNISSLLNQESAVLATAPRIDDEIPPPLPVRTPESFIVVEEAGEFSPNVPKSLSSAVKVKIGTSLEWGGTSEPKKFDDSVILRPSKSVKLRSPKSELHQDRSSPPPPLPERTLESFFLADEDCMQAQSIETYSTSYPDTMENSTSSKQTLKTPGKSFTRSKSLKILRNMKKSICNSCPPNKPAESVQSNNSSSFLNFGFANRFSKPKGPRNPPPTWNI

Interleukin-8 [11] = molecular target: T6, Interleukin-8 (Homo sapiens, UniProt P10145); experiment: Dose Response confirmation of uHTS small molecule hits for cystic fibrosis induced NFkb Inhibitors in a PAF-induced IL8 counterscreen.; type: functional; settings: read-out: IC50_Mean
T6 sequence (P10145 whole entry): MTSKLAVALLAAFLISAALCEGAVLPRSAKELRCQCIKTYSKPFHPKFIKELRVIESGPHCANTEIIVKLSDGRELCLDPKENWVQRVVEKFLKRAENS

Interleukin-8 [12] = molecular target: T6, Interleukin-8; experiment: Dose Response confirmation of uHTS small molecule hits for cystic fibrosis induced NFkb Inhibitors in a TNFa-induced IL8 counterscreen.; type: functional; settings: read-out: IC50_Mean

- EC50 [1]: > 100 µM (inactive)
SMILES: CC1(C)CC2CC(C)(CN2C(=O)C2CC(c3ccc(F)cc3)=NO2)C1 (centres undefined)

- EC50 [5]: > 53 µM (inactive)
- IC50 [6]: 7.23 µM (active)
- IC50 [7]: 1 µM (active)
SMILES: CCN(Cc1ccccc1)C(c1cccc(C#N)c1)c1nnnn1C(C)(C)C (centres undefined)

The next lines start with the molecule.

SMILES: COc1ccccc1-c1sc2ccccc2c1-c1ccc(OCCN2CCCCC2)cc1
- EC50 [2]: 18.9 µM (active)

SMILES: COc1ccc(Oc2c(Cl)cnn(C(C)c3ccccc3C)c2=O)cc1 (centres undefined)
- IC50 [3]: 9.16 µM (active)
- IC50 [4]: 8.01 µM (active)

SMILES: O=C(N/N=C\C=C\c1ccc(Br)cc1)c1ccc2c(c1)OCO2
- IC50 [8]: 7.43 µM (active)
- IC50 [9]: 11.6 µM (active)
- IC50 [10]: 23.5 µM (inactive)

SMILES: c1ccc2c(-c3ccc4nncn4c3)cncc2c1
- IC50 (Interleukin-8 [11]): 12.4 µM (inactive)
- IC50 (Interleukin-8 [12]): > 79 µM (inactive)

SMILES: CCOC(=O)C(C(=O)OCC)c1c(Cl)cnn(Cc2cccc3ccccc23)c1=O
- IC50 [3]: 4.03 µM (active)
- IC50 [4]: 3.77 µM (active)
